Laboratory results: US12295983B2, “Use of extracts of the leaves of lemon verbena (Aloysia citriodora) for increasing the neuronal, cerebral availability of neurotransmitters selected from the group of serotonin, dopamine, noradrenaline” (Finzelberg GMBH & Co. KG, priority 2018, dated 2025)
Read-outs that look alike come from different tables or passages of the source.

Experiments:
[1] = biological target: T1, serotonin reuptake in synaptosomes from rat cortex (Rattus norvegicus, UniProt P31652); conditions: read-out: Serotonin (IC50 μg/ml); literature value, Markowitz et al.; cited from earlier work
T1 construct: Freshly isolated synaptosomes from rats were used; from tissue; host or cells: synaptosomes from rat cortex
T1 sequence (P31652 whole entry): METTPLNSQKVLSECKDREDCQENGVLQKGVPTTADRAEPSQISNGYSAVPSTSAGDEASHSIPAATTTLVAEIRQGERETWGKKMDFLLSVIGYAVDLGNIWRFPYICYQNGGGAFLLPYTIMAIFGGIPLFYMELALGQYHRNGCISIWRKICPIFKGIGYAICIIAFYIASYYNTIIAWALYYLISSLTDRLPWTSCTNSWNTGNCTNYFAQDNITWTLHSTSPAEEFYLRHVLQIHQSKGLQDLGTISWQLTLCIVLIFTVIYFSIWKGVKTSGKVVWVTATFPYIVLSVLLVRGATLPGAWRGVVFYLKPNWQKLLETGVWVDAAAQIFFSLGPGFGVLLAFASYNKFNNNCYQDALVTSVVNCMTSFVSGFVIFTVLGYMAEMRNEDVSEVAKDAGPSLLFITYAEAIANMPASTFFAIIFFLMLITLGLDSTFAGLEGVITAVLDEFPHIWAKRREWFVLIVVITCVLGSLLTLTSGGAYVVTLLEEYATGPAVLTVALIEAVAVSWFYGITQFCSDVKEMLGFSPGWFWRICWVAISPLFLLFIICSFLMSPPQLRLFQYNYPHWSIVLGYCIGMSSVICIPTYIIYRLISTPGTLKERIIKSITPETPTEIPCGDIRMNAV

[2] = biological target: T2, dopamine reuptake in synaptosomes from rat cortex (Rattus norvegicus, UniProt P23977); conditions: read-out: Dopamine (IC50 μg/ml), literature value, cited from earlier work
T2 construct: Freshly isolated synaptosomes from rats were used; from tissue; host or cells: synaptosomes from rat cortex
T2 sequence (P23977 whole entry): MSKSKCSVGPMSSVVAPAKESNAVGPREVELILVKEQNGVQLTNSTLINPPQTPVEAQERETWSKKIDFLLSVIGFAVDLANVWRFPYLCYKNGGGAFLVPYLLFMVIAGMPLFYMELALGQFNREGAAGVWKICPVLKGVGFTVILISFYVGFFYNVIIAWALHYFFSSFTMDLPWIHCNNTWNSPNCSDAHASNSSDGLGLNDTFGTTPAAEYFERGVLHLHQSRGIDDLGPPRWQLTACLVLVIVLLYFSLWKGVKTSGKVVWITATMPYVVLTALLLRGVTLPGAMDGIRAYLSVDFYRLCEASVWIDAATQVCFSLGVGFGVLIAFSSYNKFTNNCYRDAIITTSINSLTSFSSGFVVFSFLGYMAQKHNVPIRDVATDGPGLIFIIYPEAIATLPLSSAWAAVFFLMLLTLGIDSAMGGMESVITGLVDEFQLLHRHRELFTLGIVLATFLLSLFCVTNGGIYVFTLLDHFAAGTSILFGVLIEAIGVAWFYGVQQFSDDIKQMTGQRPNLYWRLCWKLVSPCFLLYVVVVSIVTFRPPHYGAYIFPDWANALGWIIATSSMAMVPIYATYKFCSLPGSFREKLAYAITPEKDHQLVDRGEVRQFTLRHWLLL

[3] = tested on: noradrenaline reuptake in synaptosomes from rat cortex; conditions: literature value, cited from earlier work
[4] = biological target: T1, serotonin reuptake in synaptosomes from rat cortex; experiment: Serotonin reuptake test with [3H]-serotonin in freshly isolated synaptosomes; type: biochemical; conditions: ratio of reuptake IC50 values
Procedure: Freshly isolated synaptosomes from rats were used according to Perovic and Müller [Perovic S, Müller W E, 1995, Arzneimittelforschung 45; 1145-1148] for a dopamine reuptake test, and a serotonin reuptake test, and a noradrenaline reuptake test. [^3H]-dopamine, [^3H]-noradrenaline and [^3H]-serotonin, respectively, served as the ligands. The test substance was incubated with the synaptosomes and the corresponding ligand for 15 min at 37° C. in the dark. The samples were then transferred to GF/C filter plates, and washed cold twice, and dried, before the filter-bound radioactivity was measured with a microtitration plate counter (Microbeta, Wallac, Finland). For determining the 100% reuptake, the experiment was performed without test substances. The measured value for incubation with corresponding inhibitors (GBR12909 in the dopamine reuptake inhibition, protriptyline in the noradrenaline reuptake inhibition, and imipramine hydrochloride for the serotonin reuptake inhibition) was considered as a 0% uptake.

[5] = tested on: transgenic C. elegans strain CL2355 expressing human β-amyloid pan-neuronally; experiment: β-Amyloid-induced neuronal dysfunction, chemotaxis towards benzaldehyde; type: in vivo, Caenorhabditis elegans
Procedure: β-Amyloid species can damage neurons and trigger a dysfunction of neuronally controlled behavior. The transgenic C. elegans strain CL2355 expresses human β-amyloid on a pan-neuronal level. This leads to cognitive disorders, such as reduced chemotactic movement towards an attractant (benzaldehyde). In the experiments, the chemotaxis index, i.e., the proportion of worms moved towards the attractant on the agar plate, was measured. […] The experiment was performed in accordance with […] et al.

[6] = tested on: transgenic C. elegans strain CL4176 expressing human β-amyloid (Aβ 1-42); experiment: β-Amyloid-induced toxicity (paralysis, PT50) in C. elegans model; type: in vivo, Caenorhabditis elegans; conditions: 200 μg/ml; negative control 31.0 ± 0.4
Procedure: In order to test the effect on β-amyloid toxicity, the transgenic C. elegans strain CL4176, which can express human β-amyloid (Aβ 1-42), was employed. Aβ expression can be induced by increasing the temperature. Age-synchronized and treated worms were incubated at 16° C. for 48 hours. After increasing the temperature to 25° C. and incubation for 24 hours, the worms began to get paralyzed because of the toxicity of the Aβ oligomer. The paralysis was evaluated every 2 hours (experimental set-up according to Heiner et al.: Sideritis scardica extracts inhibit the aggregation of α-synuclein and β-amyloid peptides in Caenorhabditis elegans used as a model for neurodegenerative diseases. Planta Medica 81—PW_127, 2015). Substances that counteract this toxic effect of β-amyloid lead to a slower or later paralysis of the animals. Such substances delay the neurodegeneration, inter alia, in Alzheimer's dementia. The median (PT50), which is the time when exactly 50% of the nematodes were paralyzed, was used as a comparative value.

[7] = tested on: dopaminergic neurons of transgenic C. elegans strain BZ555; experiment: Protection of dopaminergic neurons from 6-OHDA-induced degeneration (GFP fluorescence); type: in vivo, Caenorhabditis elegans; conditions: worms + 50 mM 6-OHDA + 100 μg/ml; negative control 34.3 ± 4.3
Procedure: 6-Hydroxydopamine (6-OHDA) damages dopaminergic neurons, which is used in different animal models. The transgenic C. elegans strain BZ555 expresses green fluorescent protein in dopaminergic neurons. Thus, the 6-OHDA-induced neurodegeneration or the reduction thereof can be quantified by fluorescence microscopy. The worms were exposed to 50 mM 6-OHDA, which reduces the fluorescence intensity of the neurons because of the degeneration thereof. Bupropione, a selective noradrenaline and dopamine reuptake inhibitor (NDRI), serves as the positive control. Through the inhibition of the noradrenaline (NA) or dopamine (DA) transporters (reuptake), bupropion prevents the neurotoxin 6-OHDA from getting into and damaging the neurons.

Structure (SMILES): COC(=O)C(c1ccccc1)C1CCCCN1 (stereo not shown) [Methylphenidate]
- IC50 [1]: 18500 nM
- IC50 ([2]; Markowitz et al.): 1110 nM
- IC50 ([2]; Sommer et al.): 489 nM
- Noradrenaline (IC50 μg/ml) ([3]; Markowitz et al.): 0.052 µg/mL
- Noradrenaline (IC50 μg/ml) ([3]; Sommer et al.): 0.050 µg/mL
- activity ratio of serotonin to noradrenaline (factor) [4]: 86

Structure (SMILES): C[C@@H]1O[C@@H](O[C@@H]2[C@@H](O)[C@H](OCCc3ccc(O)c(O)c3)O[C@H](CO)[C@H]2OC(=O)/C=C/c2ccc(O)c(O)c2)[C@H](O)[C@H](O)[C@H]1O [acteoside]
- share of the chemotaxis index of the control strain CL2122 reached ([5]; 200 μg/ml): about 88%
- Chemotaxis index ([5]; CL2355, 200 μg/ml, untreated 0.10 ± 0.04, control strain CL2122 0.50 ± 0.09): 0.45 ± 0.02 (p < 0.05)
- PT50 value [6]: 32.8 ± 0.3 h

Structure (SMILES): CC(NC(C)(C)C)C(=O)c1cccc(Cl)c1 (stereo not shown) [bupropion]
- Fluorescence intensity [% of untreated group] [7]: 68.2 ± 7.7 % of untreated group
